Patent publication US20200069644A1, “NOVEL USE OF A FORMYL PEPTIDE RECEPTOR 2/ LIPOXIN A4 RECEPTOR (FPR2/ALX) AGONIST FOR TREATMENT OF HEART FAILURE” (BRISTOL- MYERS SQUIBB COMPANY, priority 2017, published 2020)

Assays:
Rat FPR2 [1] = target: Rat FPR2 (Rattus norvegicus, UniProt A0A8I6AM80); assay: cAMP inhibition, rat FPR2 CHO cells; format: cell-based; conditions: Rat FPR2
Rat FPR2 [2] = assay: cAMP inhibition, rat FPR2 CHO cells; format: cell-based; conditions: CHO cell lines, cAMP
Human FPR2 = target: T1, Human FPR2 (Homo sapiens, UniProt P25090); assay: FPR2 cAMP assay (cAMP inhibition); format: cell-based
T1 construct: expressed in transfected cells; host or cells: CHO-A12
T1 sequence (P25090 1-351): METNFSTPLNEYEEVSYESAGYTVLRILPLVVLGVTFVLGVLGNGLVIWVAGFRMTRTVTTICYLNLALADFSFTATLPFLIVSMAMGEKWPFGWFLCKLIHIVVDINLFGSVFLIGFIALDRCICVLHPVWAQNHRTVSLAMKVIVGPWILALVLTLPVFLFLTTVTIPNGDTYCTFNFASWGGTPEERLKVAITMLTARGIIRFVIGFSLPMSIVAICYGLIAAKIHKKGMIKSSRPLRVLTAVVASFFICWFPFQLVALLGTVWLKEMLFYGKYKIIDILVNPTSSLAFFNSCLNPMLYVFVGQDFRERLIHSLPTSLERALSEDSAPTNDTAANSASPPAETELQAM
Procedure: A mixture of forskolin (5 μM final for FPR2 or 10 μM final for FPR1) and IBMX (200 μM final) were added to 384-well Proxiplates (Perkin-Elmer) pre-dotted with test compounds in DMSO (1% final) at final concentrations in the range of 0.1 nM to 10 μM. CHO overexpressing human FPR1 or human FPR2 receptors were cultured in F-12 (Ham's) medium supplemented with 10% qualified FBS, 250 μg/ml zeocin and 300 μg/ml hygromycin (Life Technologies). Reactions were initiated by adding 2,000 human FPR2 cells per well or 4,000 human FPR1 cells per well in Dulbecco's PBS (with calcium and magnesium) (Life Technologies) supplemented with 0.1% BSA (Perkin-Elmer). The reaction mixtures were incubated for 30 min at room temperature. The level of intracellular cAMP was determined using the HTRF HiRange cAMP assay reagent kit (Cisbio) according to manufacturer's instruction. Solutions of cryptate conjugated anti-cAMP and d2 flurorophore-labelled cAMP were made in a supplied lysis buffer separately. […] After a 1 h room temperature incubation, time-resolved fluorescence intensity was measured using the Envision (Perkin-Elmer) at 400 nm excitation and dual emission at 590 nm and 665 nm. […] The potency and activity of Compound 1 to inhibit cAMP production was then determined by fitting to a 4-parametric logistic equation from a plot of cAMP level versus compound concentrations. […]

[3] = tested on: ischemia-reperfusion myocardial infarction in rats; assay: Rat model of ischemia-reperfusion myocardial infarction, 6 weeks; format: in vivo
Procedure: In a third model of myocardial infarction, transient coronary artery occlusion followed by reperfusion was carried out in rats to induce myocardial infarction and to assess salvage of myocardium within the area at risk of myocardial infarction. Treatment with orally-administered Compound 1 (0.01, 0.1, 1, and 10 mg/kg, QD) or dosing solution without compound (QD, referred to as vehicle) was initiated 48 hours following myocardial infarction. Rats subjected to thoracotomy but not infarcted were included as surgical “sham” controls. Rats were evaluated 6 weeks following myocardial infarction to assess structure/function relationships. Hearts were removed from rats for histological processing to the extent of myocardial salvage with Compound 1 treatment. The pressure-volume conductance catheter technique was used to evaluate cardiac function.
The effects of Compound 1 on left ventricle and infarct scar remodeling were evaluated in a rat model of ischemia-reperfusion myocardial infarction. Treatments were initiated 48 hr after MI and were continued for 6 weeks. MI was created by transient ligation the left anterior descending artery with a surgical suture for 1 hour followed by reperfusion. Treatments consisted of a suspension vehicle, Compound 1 at 0.01, 0.1, 1 and 10 mg/kg. At the end of 6 weeks of treatment, hearts were removed for histological evaluation of left ventricle structure and scar structure. This is a model of ischemic heart disease.
In addition, the effect of Compound 1 on cardiac function was measured by the pressure-volume conductance catheter technique to assess structure/function relationships. The structure of the infarct wall was measured histologically to determine the extent of myocardial infarction and myocardial tissue salvage. In this model, blood reperfusion to the site of ischemia is designed to salvage myocardium within the area at risk of myocardial infarction. However, in this model, there is potential for additional insult to tissue caused by reperfusion that can stimulate added myocardial necrosis. Therefore, measurement of myocardial salvage within the myocardial infarct zone is an important endpoint in this model. […] Preservation of viable myocardium was obtained at the 0.1, 1 and 10 mg/kg doses (31-41% preservation relative to vehicle, *P<0.05, **P<0.01, ***P<0.001).
A pressure-volume conductance catheter was used to measure left ventricular ejection fraction at the end of the treatment phase. The fraction of blood pumped out of the left ventricle was measured per contraction cycle (i.e., ejection fraction) and was used to assess overall cardiac function following 6 weeks of treatment. […]

Rat FPR1 = target: T2, Rat FPR1 (Rattus norvegicus, UniProt D4A7Q2); assay: cAMP inhibition, rat FPR1 CHO cells; format: cell-based
T2 construct: expressed in transfected cells; host or cells: CHO
T2 sequence (D4A7Q2 1-355): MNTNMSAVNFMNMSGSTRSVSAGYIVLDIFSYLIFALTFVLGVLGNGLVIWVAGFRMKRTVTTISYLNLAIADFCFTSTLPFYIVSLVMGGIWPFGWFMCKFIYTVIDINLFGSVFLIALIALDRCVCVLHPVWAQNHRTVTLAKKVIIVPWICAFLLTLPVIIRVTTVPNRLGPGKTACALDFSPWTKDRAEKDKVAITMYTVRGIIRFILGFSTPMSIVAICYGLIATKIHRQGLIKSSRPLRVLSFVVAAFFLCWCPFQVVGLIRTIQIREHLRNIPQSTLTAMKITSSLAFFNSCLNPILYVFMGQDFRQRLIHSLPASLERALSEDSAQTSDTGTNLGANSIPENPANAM

Rat FPR2 (Rattus norvegicus, UniProt A0A8I6AM80), sequence (A0A8I6AM80 1-351): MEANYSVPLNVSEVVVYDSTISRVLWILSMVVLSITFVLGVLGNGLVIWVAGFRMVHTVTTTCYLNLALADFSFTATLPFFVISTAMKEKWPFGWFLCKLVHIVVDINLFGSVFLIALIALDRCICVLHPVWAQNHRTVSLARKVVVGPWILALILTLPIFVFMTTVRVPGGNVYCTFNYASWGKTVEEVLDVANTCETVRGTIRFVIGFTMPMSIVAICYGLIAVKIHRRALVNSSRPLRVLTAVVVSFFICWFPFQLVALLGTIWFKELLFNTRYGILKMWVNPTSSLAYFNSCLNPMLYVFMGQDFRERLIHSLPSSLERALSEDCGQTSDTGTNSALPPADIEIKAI

COc1cc(F)c([C@@H]2CNC(=O)[C@H]2NC(=O)Nc2ccccc2)c(F)c1 [Compound 1, 1-((3S,4R)-4-(2,6-difluoro-4-methoxyphenyl)-2-oxopyrrolidin-3-yl)-3-phenylurea]
EC50 (Rat FPR2 [1]): 1.5 nM
selectivity for rat FPR2 vs. FPR1 (Rat FPR2 [2]): 480 fold
selectivity for human FPR2 vs. FPR1 (Human FPR2; CHO cell lines, cAMP): 446 fold
EC50 (Human FPR2; Human FPR2/CHO-A12): 2.8 nM
improvement in left ventricular ejection fraction vs. vehicle (pressure-volume conductance catheter) ([3]; 0.01 mg/kg PO QD, P<0.05): 37%
improvement in left ventricular ejection fraction vs. vehicle (pressure-volume conductance catheter) ([3]; 1 mg/kg PO QD, P<0.01): 51%
preservation of viable myocardium across infarct wall relative to vehicle ([3]; 0.1, 1 and 10 mg/kg PO QD): 31-41%
left ventricular ejection fraction vs. vehicle (pressure-volume conductance catheter) ([3]; other doses (0.1 and 10 mg/kg)): trend towards improved ejection fraction
EC50 (Rat FPR1): 720 nM
